# Results from patent US12208088B2 (Genentech, Inc., priority 2018, dated 2025).
# Key:
# [1] = tested on: primary human pan T cells; assay: Human T-cell IL2 induction assay; format: cell-based; details: IL-2, anti-CD3/anti-CD28 stimulated T cells
# Experimental: Example B3: Human T-Cell IL2 Induction Assay
# Anti-CD3 and anti-CD28 activates TCR signaling in primary human pan T cells leading to IL-2 promoter induction. Secreted IL-2 in cell culture supernatant is detected by electrochemiluminescence using a capture antibody against IL-2 and an anti-IL-2 antibody labeled with SULFO-tag.
# See www.mesoscale.com for additional electrochemiluminescence technology information.
# Incubate primary human pan T cells with varying concentrations of test compounds for 30 minutes in a humidified incubator at 37° C. and 5% CO2. Transfer cells to a plate pre-coated with a fixed concentration of anti-human CD3 (determined separately for each donor lot) and add soluble anti-human CD28 (final concentration=1 μg/ml). Stimulate cells in a humidified incubator at 37° C. and 5% CO2 for 4 hours. Transfer 25 μl of supernatant to a MSD single spot plate pre-coated with an anti-human IL-2 antibody. Incubate MSD plate overnight at 4° C. with gentle shaking. Wash MSD plate 4× with wash buffer. Add SULFO-tagged detection antibody at a 1:50 dilution and incubate at room temperature shaking for 2 hours. Wash MSD plate 4× with wash buffer and add […] 2×MSD read buffer. Read on an MSD instrument. Normalize data to stimulated/untreated controls to calculate % activity at each concentration of compound.
# • Frozen Primary Human Pan-T Cells (StemCell Technologies #70024) • anti-human CD3 (OKT3 clone) (eBioscience #16-0037-81) • anti-human CD28 (CD28.2 clone) (BD #555725) • 96-well Human IL-2 tissue culture kit (MSD #K151AHB-4) Instrumentation: • Biomek FX for liquid handling (Beckman Coulter) • MSD SECTOR S 600 (Meso Scale Discovery)
# Exemplary compounds of Formula (I) were tested in the human T-cell IL-2 induction assays. The % increase measured for IL-2 in cells treated by the test compounds relative to untreated cells are provided in Table B2 for certain compounds.
# HPK1 = HPK1 (Homo sapiens (Human), UniProt Q92918); assay: HPK1 Lantha binding assay ("Lanth"); details: binding assays; Morrison Ki fit
# Chain of HPK1 (Q92918 1-346 limits assumed): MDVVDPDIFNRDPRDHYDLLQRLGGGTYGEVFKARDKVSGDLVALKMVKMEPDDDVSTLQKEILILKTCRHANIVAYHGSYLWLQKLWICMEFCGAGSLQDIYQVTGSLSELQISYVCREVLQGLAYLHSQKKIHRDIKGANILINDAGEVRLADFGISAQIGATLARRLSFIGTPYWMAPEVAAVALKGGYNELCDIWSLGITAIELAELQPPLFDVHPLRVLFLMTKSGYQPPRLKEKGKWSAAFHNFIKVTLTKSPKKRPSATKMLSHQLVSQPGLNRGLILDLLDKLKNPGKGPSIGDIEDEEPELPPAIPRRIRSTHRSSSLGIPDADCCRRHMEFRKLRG
# In short: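 TR-FRET binding competition using 2 nM HPK1, 2 nM Eu-anti-GST antibody and 15 nM Tracer222 at 23 °C. Compound was incubated 1 h with enzyme and antibody, then 1 h after tracer addition, with an 11-point 5-fold dilution series. Ki obtained from a Morrison fit that corrects for tracer concentration and Kd.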
SMILES,Ki (HPK1) [µM],other results
"Cc1c(CC#N)ccnc1-c1cc(N)cc(-c2cnc3c(c2Cl)[C@@]2(CC[C@@](C)(C#N)C2)CN3)c1 (stereo in doubt) [Compound 274b, (1S,3R)-5′-(3-Amino-5-(4-(cyanomethyl)-3-methylpyridin-2-yl)phenyl)-4′-chloro-3-methyl-1′,2′-dihydrospiro[cyclopentane-1,3′-pyrrolo[2,3-b]pyridine]-3-carbonitrile]",–,% IL relative to untreated cells ([1]; assayed concentration 0.926 μM): 564%
"CC[C@H]1C[C@@]12CNc1ncc(-c3ccc(N)c(C(=O)N(C)C)c3F)cc12 [Compound 243a, 6-Amino-3-((1R,2S)-2-ethyl-1′,2′-dihydrospiro[cyclopropane-1,3′-pyrrolo[2,3-b]pyridin]-5′-yl)-2-fluoro-N,N-dimethylbenzamide]",–,% IL relative to untreated cells ([1]; assayed concentration 2.8 μM): 111%
"Cc1c(CC#N)ccnc1-c1cccc(-c2cnc3c(c2Cl)[C@@]2(CC[C@@](C)(C(N)=O)C2)CN3)c1F [Compound 267b, (1S,3R)-4′-Chloro-5′-(3-(4-(cyanomethyl)-3-methylpyridin-2-yl)-2-fluorophenyl)-3-methyl-1′,2′-dihydrospiro[cyclopentane-1,3′-pyrrolo[2,3-b]pyridine]-3-carboxamide]",–,% IL relative to untreated cells ([1]; assayed concentration 0.926 μM): 298%
"N#Cc1ccc2ccn(-c3cnc4c(c3)C3(CC3)CN4)c2c1 [Compound 344, 1-(1′,2′-Dihydrospiro[cyclopropane-1,3′-pyrrolo[2,3-b]pyridin]-5′-yl)-1H-indole-6-carbonitrile]",0.59,–
"Cn1cc(Nc2ccc3c(-c4cnc5c(c4)C4(CC4)CN5)c[nH]c3c2)cn1 [Compound 345, 3-(1′,2′-Dihydrospiro[cyclopropane-1,3′-pyrrolo[2,3-b]pyridin]-5′-yl)-N-(1-methyl-1H-pyrazol-4-yl)-1H-indol-6-amine]",0.094,–

# Further lines, with some results ahead:
Ki (HPK1) [µM],SMILES,other results
0.00849,"CN(C)C(=O)c1c(N)ccc(-c2cnc3c(c2Cl)[C@]2(CC[C@](C)(C#N)CC2)CN3)c1F [Compound 250a, 6-Amino-3-((1s,4s)-4′-chloro-4-cyano-4-methyl-1′,2′-dihydrospiro[cyclohexane-1,3′-pyrrolo[2,3-b]pyridin]-5′-yl)-2-fluoro-N,N-dimethylbenzamide]",% IL relative to untreated cells ([1]; assayed concentration 25 μM): 504%
0.003,"CN(C)C(=O)c1c(N)ccc(-c2cnc3c(c2Cl)[C@]2(CC[C@@H](CO)C2)CN3)c1F [Compound 259c, 6-Amino-3-((1R,3R)-4′-chloro-3-(hydroxymethyl)-1′,2′-dihydrospiro[cyclopentane-1,3′-pyrrolo[2,3-b]pyridin]-5′-yl)-2-fluoro-N,N-dimethylbenzamide]",% IL relative to untreated cells ([1]; assayed concentration 8.3 μM): 604%
0.0734,"N#CCc1ccc2[nH]cc(-c3cnc4c(c3)C3(CC3)CN4)c2c1 [Compound 342, 2-(3-(1′,2′-Dihydrospiro[cyclopropane-1,3′-pyrrolo[2,3-b]pyridin]-5′-yl)-1H-indol-5-yl)acetonitrile]",–
0.074,"CN(c1ccc2c(-c3cnc4c(c3)C3(CC3)CN4)c[nH]c2c1)c1cnn(C)c1 [Compound 343, 3-(1′,2′-Dihydrospiro[cyclopropane-1,3′-pyrrolo[2,3-b]pyridin]-5′-yl)-N-methyl-N-(1-methyl-1H-pyrazol-4-yl)-1H-indol-6-amine]",–
